Test [1] relates to Escherichia coli (Stratagene, BLR). Nature of the test: Short-term effect (CFU). Format: cell-based. The procedure:
For this purpose, the procedure was as follows.
LB growth medium (Becton, Dickinson and Company, Sparks, USA) […] make up to 1 liter, set pH 7
The growth test was effected as follows: 10 ml of LB medium were inoculated with E. coli and incubated at 37° C. and 200 rpm overnight.
1.5 ml reaction vessels were each filled with 1 ml of LB medium and inoculated with the E. coli suspension from the overnight culture. The E. coli suspension was adjusted at the start of the experiment to an optical density, measured at 600 nm, of 0.1. The concentration of the peptide solution in water or ZPT solution (zinc pyrithione, >96%, Sigma Aldrich) dissolved in DMSO was 2% (w/w).
The following growth was compared: • E. coli suspension and addition of P18 peptide with a final concentration in the 1.5 ml reaction vessel of 50 ppm after 5 minutes, 10 minutes, 20 minutes and 60 minutes • E. coli suspension and addition of P18 peptide with a final concentration in the 1.5 ml reaction vessel of 100 ppm after 5 minutes, 10 minutes, 20 minutes and 60 minutes • E. coli suspension and addition of P18 peptide with a final concentration in the 1.5 ml reaction vessel of 200 ppm after 5 minutes, 10 minutes, 20 minutes and 60 minutes • E. coli suspension and addition of P18 peptide with a final concentration in the 1.5 ml reaction vessel of 500 ppm after 5 minutes, 10 minutes, 20 minutes and 60 minutes • E. coli suspension and addition of P18 peptide with a final concentration in the 1.5 ml reaction vessel of 1000 ppm after 5 minutes, 10 minutes, 20 minutes and 60 minutes • E. coli suspension and addition of ZPT with a final concentration in the 1.5 ml reaction vessel of 50 ppm after 5 minutes, 10 minutes, 20 minutes and 60 minutes • E. coli suspension and addition of ZPT with a final concentration in the 1.5 ml reaction vessel of 100 ppm after 5 minutes, 10 minutes, 20 minutes and 60 minutes • E. coli suspension and addition of ZPT with a final concentration in the 1.5 ml reaction vessel of 200 ppm after 5 minutes, 10 minutes, 20 minutes and 60 minutes • E. coli suspension and addition of ZPT with a final concentration in the 1.5 ml reaction vessel of 500 ppm after 5 minutes, 10 minutes, 20 minutes and 60 minutes • E. coli suspension and addition of ZPT with a final concentration in the 1.5 ml reaction vessel of 1000 ppm after 5 minutes, 10 minutes, 20 minutes and 60 minutes
The 1.5 ml reaction vessels were incubated at room temperature.
After the incubation times specified, the colony forming units (CFU) were determined by streaking 1 μl of each of the suspensions diluted in 20 μl of LB medium and, after incubation for 2 days, counting the colonies.

A further test relates to M. furfur (DSM 6170). Put plainly: P18 in pharmaceutical base formulation (CFU). Format: cell-based, Malassezia furfur. The conditions noted are these: for Colony forming units after the incubation time specified: 10 000 ppm in the formulation, mixed 1:9 with suspension. The method, then:
The aim of the experiment was to study the effect of a pharmaceutical base formulation containing the P18 peptide ingredient (P18 sequence H-KWKLFKKIPKFLHLAKKF-NH2 (Bachem AG, Switzerland)) on further fungi and bacteria. For this purpose, the following base formulation was used: […]
1% hydroxycellulose 10% propylene glycol made up with water.
Based on the base formulation, formulations containing 10 000 ppm of P18 peptide were prepared from a 20% concentrate solution.
The effect of the formulations on S. epidermidis (DSM 1798), M. furfur (DSM 6170) and T. rubrum (DSM 21146) was studied.
M472 growth medium according to DSMZ for M. furfur 40 g of malt extract (Becton, Dickinson and Company, Sparks, USA) 20 g of ox bile (Merck, Darmstadt, Germany)
For M. furfur, 5 ml of medium were inoculated with the microorganism and incubated at 30° C. and 200 rpm overnight.
1.5 ml reaction vessels were each filled with 1 ml of medium and inoculated with the fungal or bacterial suspension from the overnight culture such that the resulting suspensions at the start of the experiment had been adjusted to an optical density, measured at 600 nm, of 0.1. The resulting suspension was mixed with the formulations in a ratio of 1:9 (formulation: microbial suspension). 1 μl of the culture was diluted with 20 μl of medium after 5 minutes and 60 minutes and then plated out. After incubation over 24 hours, the colonies on the plates were counted.

For a further test, the system named is Malassezia furfur. Nature of the test: Growth inhibition at equal concentrations by weight of P18, zinc pyrithione, climbazole, ketoconazole (CFU). Format: cell-based. The method, then: The studies described hereinafter were conducted on the Malassezia furfur strain DSM 6170.
For this purpose, the procedure was as follows:
The growth test was effected as follows: a shake culture containing M472 Pityrosporum medium was inoculated with M. furfur and incubated with shaking at 30° C. and 200 rpm overnight.
A 96-well microtiter plate was filled with 100 μl per well of M472 Pityrosporum medium and inoculated with M. furfur suspension from the overnight culture. The M. furfur suspension was adjusted at the start of the experiment to an optical density, measured at 600 nm, of 0.02. The concentrates of the inhibitor solutions were 1 mM in DMSO for P18 peptide and 10 mM in DMSO for zinc pyrithione, ketoconazole and climbazole. The final DMSO concentration was kept the same in all experiments.
The following growth was compared by measuring the optical density: • M. furfur suspension and addition of the P18 solution with a final concentration of 50 μM (corresponds to 0.0115% (w/w)) • M. furfur suspension and addition of the zinc pyrithione (ZPT) solution with a final concentration of 362 μM (comparison to the mixture containing 50 μM P18 peptide) • M. furfur suspension and addition of the ketoconazole solution with a final concentration of 216 μM (comparison to the mixture containing 50 μM P18 peptide) • M. furfur suspension and addition of the climbazole solution with a final concentration of 390 μM (comparison to the mixture containing 50 μM P18 peptide)
The microtiter plate was incubated with shaking at 30° C.
[…] After incubation over the course of 6 days, the colonies on the plate were counted. The CFU was determined in order to rule out any influence of the biphasic medium, and also the growth form of M. furfur, on the optical density. The experiments were each conducted in double determination, at least in two independent experiments.

As to “H-KWKLFKKIPKFLHLAKKF-NH2 [P18, H-KWKLFKKIPKFLHLAKKF-NH2]”, the “Colony forming units after the incubation time specified” value worked out at 2000 ± 0 CFU in test [1] (50 ppm, 5 minutes); 2000 ± 0 CFU in test [1] (50 ppm, 10 minutes); 2000 ± 0 CFU in test [1] (50 ppm, 20 minutes); 1208 ± 532 CFU in test [1] (50 ppm, 60 minutes); 2000 ± 0 CFU in test [1] (100 ppm, 5 minutes); 2000 ± 0 CFU in test [1] (100 ppm, 10 minutes). Besides, the “Colony forming units after the incubation time specified” value was determined as 1836 ± 108 CFU in test [1] (100 ppm, 20 minutes); 726 ± 88 CFU in test [1] (100 ppm, 60 minutes); 2000 ± 0 CFU in test [1] (200 ppm, 5 minutes); 2000 ± 0 CFU in test [1] (200 ppm, 10 minutes); 1310 ± 144 CFU in test [1] (200 ppm, 20 minutes); 192 ± 56 CFU in test [1] (200 ppm, 60 minutes). For the same substance, the “Colony forming units after the incubation time specified” value in test [1] (500 ppm, 5 minutes) was determined as 2000 ± 0 CFU; in test [1] (500 ppm, 10 minutes), 2000 ± 0 CFU; in test [1] (500 ppm, 20 minutes), 816 ± 96 CFU; in test [1] (500 ppm, 60 minutes) it was 24 ± 16 CFU; in test [1] (1000 ppm, 5 minutes), 2000 ± 0 CFU; in test [1] (1000 ppm, 10 minutes) it was 2000 ± 0 CFU. For the same substance, the “Colony forming units after the incubation time specified” value in test [1] (1000 ppm, 20 minutes) was found to be 369 ± 383 CFU; in test [1] (1000 ppm, 60 minutes) it was 6 ± 2 CFU; with M. furfur (DSM 6170) (5 minutes), 671 ± 13 CFU; in the test with M. furfur (DSM 6170) (60 minutes), 2 ± 2 CFU. In the test on M. furfur (DSM 6170) (treatment with a formulation which comprised P18, highest reduction of Example 22), the “Reduction in the cell count” value is over 300 fold. In addition, the “Colony forming units (CFU)” value in the test on Malassezia furfur (final conc. 50 μM (0.0115% (w/w)), 24 h) was determined as 1 ± 1 CFU; in the test on Malassezia furfur (final conc. 50 μM (0.0115% (w/w)), 40 h) it was 0 ± 0 CFU.
As to zinc pyrithione [ZPT], the Inhibition in words entry in test [1] (50-1000 ppm, up to 60 minutes) is given as “no significant inhibition”. In addition, the “Colony forming units after the incubation time specified” value in test [1] (50 ppm, 5 minutes) came out at 2000 ± 0 CFU; in test [1] (50 ppm, 10 minutes) it was 2000 ± 0 CFU; in test [1] (50 ppm, 20 minutes), 2000 ± 0 CFU; in test [1] (50 ppm, 60 minutes), 2000 ± 0 CFU; in test [1] (100 ppm, 5 minutes), 2000 ± 0 CFU; in test [1] (100 ppm, 10 minutes) it was 2000 ± 0 CFU. The “Colony forming units after the incubation time specified” value in test [1] (100 ppm, 20 minutes) is given as 2000 ± 0 CFU; in test [1] (100 ppm, 60 minutes) it was 2000 ± 0 CFU; in test [1] (200 ppm, 5 minutes), 2000 ± 0 CFU; in test [1] (200 ppm, 10 minutes), 2000 ± 0 CFU; in test [1] (200 ppm, 20 minutes), 2000 ± 0 CFU; in test [1] (200 ppm, 60 minutes), 2000 ± 0 CFU. In addition, the “Colony forming units after the incubation time specified” value in test [1] (500 ppm, 5 minutes) was 2000 ± 0 CFU; in test [1] (500 ppm, 10 minutes) it was 2000 ± 0 CFU; in test [1] (500 ppm, 20 minutes) it was 2000 ± 0 CFU; in test [1] (500 ppm, 60 minutes), 2000 ± 0 CFU; in test [1] (1000 ppm, 5 minutes) it was 2000 ± 0 CFU; in test [1] (1000 ppm, 10 minutes) it was 2000 ± 0 CFU. Besides, the “Colony forming units after the incubation time specified” value in test [1] (1000 ppm, 20 minutes) is given as 2000 ± 0 CFU; in test [1] (1000 ppm, 60 minutes), 2000 ± 0 CFU. Moreover, the “Colony forming units (CFU)” value in the test with Malassezia furfur (final conc. 362 μM, 24 h) is 60 ± 40 CFU; in the test on Malassezia furfur (final conc. 362 μM, 40 h), 26 ± 7 CFU.
